US20250163104A1, “MACROCYCLIC IMMUNOMODULATORS” (priority 2021, published 2025)
Where a SMILES comes first, the peptide text is derived from it. Bridges are numbered along the chain shown (N, C = ends). [ ]: non-standard residue; d: D form. The star is where a group is joined. ξ: configuration not given here. Phe(4-CONH2) = NC(=O)c1ccc(C[C@H](N)C(=O)O)cc1; Phe(4-COOH) = N[C@@H](Cc1ccc(C(=O)O)cc1)C(=O)O; Phg(4-Ph) = N[C@H](C(=O)O)c1ccc(-c2ccccc2)cc1; Phe(3,4-F2) = N[C@@H](Cc1ccc(F)c(F)c1)C(=O)O; Bip = N[C@@H](Cc1ccc(-c2ccccc2)cc1)C(=O)O; Phe(3-Me) = Cc1cccc(C[C@H](N)C(=O)O)c1; Gla = N[C@@H](CC(C(=O)O)C(=O)O)C(=O)O; Val(3-OH) = CC(C)(O)[C@H](N)C(=O)O; 4Pal = N[C@@H](Cc1ccncc1)C(=O)O; Cha = N[C@@H](CC1CCCCC1)C(=O)O; Cit = NC(=O)NCCC[C@H](N)C(=O)O; NMeN = CN[C@@H](CC(N)=O)C(=O)O; Thr(3ξ) = CC(O)[C@H](N)C(=O)O; Ahp(2) = CCCCC[C@H](N)C(=O)O; Carboxymethyl = O=C(O)C*; Orn = NCCC[C@H](N)C(=O)O; Pra = C#CC[C@H](N)C(=O)O; Dab = NCC[C@H](N)C(=O)O; Dap = NC[C@H](N)C(=O)O

target: T1, human PD-1 / PD-L1-Ig binding on Jurkat cell line over-expressing human PD-1 (Jurkat-PD-1) (Homo sapiens, UniProt Q15116); assay: Jurkat-PD-1 Cell Binding High-Content Screening Assay (CBA); format: cell-based; conditions: Jurkat-PD-1 cells, PE-labeled PD-L1-Ig 20 nM final; read-out: Jurkat HPD1_PDL1 IC50
T1 construct: expressed in transfected cells; host or cells: Jurkat
T1 sequence (Q15116 25-288): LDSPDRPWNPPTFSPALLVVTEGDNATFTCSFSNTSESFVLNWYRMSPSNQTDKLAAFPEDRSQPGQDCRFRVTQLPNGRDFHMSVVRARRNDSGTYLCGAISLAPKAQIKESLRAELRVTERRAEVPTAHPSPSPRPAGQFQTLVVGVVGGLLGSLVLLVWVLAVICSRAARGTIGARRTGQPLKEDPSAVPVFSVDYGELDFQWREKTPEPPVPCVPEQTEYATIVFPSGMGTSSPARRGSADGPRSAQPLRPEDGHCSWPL
In short: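 Read-out: high-content imaging of PE-tagged PD-L1-Ig bound to Jurkat cells overexpressing human PD-1, after fixation with 4% paraformaldehyde and Hoechst 33342 nuclear staining. Ligand was used at 20 nM final for 1 hour, after a 2 h compound exposure at 37° C in serum-containing DMEM.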

Row | Compound | IC50 [nM]
1 | CCC(C)[C@@H]1NC(=O)[C@H](Cc2ccc(-c3ccccc3)cc2)NC(=O)[C@H](C(C)C)NC(=O)[C@H](Cc2cccc(C)c2)NC(=O)[C@H](CC(=O)O)NC(=O)[C@H](Cc2ccc(C(=O)O)cc2)NC(=O)[C@H](Cc2ccncc2)NC(=O)CSC[C@@H](C(=O)N[C@@H](CC(N)=O)C(N)=O)NC(=O)[C@H]([C@@H](C)O)NC(=O)[C@H](C(C)C)NC(=O)[C@H](CC2CCCCC2)NC(=O)[C@H](CCN)NC(=O)[C@@H](CC(C)C)NC(=O)[C@H](CCCN)NC1=O (stereo partly drawn) [Compound 2297] | 10.4
2 | Cc1cccc(C[C@@H]2NC(=O)[C@H](CC(=O)O)NC(=O)[C@H](Cc3ccc(OCC(=O)O)cc3)NC(=O)[C@H](CN)NC(=O)CSC[C@@H](C(=O)N[C@@H](C)C(N)=O)NC(=O)[C@H]([C@@H](C)O)NC(=O)[C@H](C(C)C)NC(=O)[C@H](CC3CCCCC3)NC(=O)[C@H](CCN)NC(=O)[C@@H](CC(C)C)NC(=O)[C@H](CCCN)NC(=O)[C@H](CN)NC(=O)[C@H](Cc3ccc(-c4ccccc4)cc3)NC(=O)[C@H](C(C)C)NC2=O)c1 [Compound 1310] ({CH2CO}-[Dap]Y(Carboxymethyl)D[Phe(3-Me)]V[Bip][Dap][Orn][dL][Dab][Cha]VTCA-NH2; thioether N-14) | 12
3 | C#CC[C@H](NC(=O)[C@H](CCN)NC(=O)[C@@H]1CSCC(=O)N[C@@H](Cc2ccncc2)C(=O)N[C@@H](Cc2ccc(C(=O)O)cc2)C(=O)N[C@@H](CC(=O)O)C(=O)N[C@@H](Cc2cccc(C)c2)C(=O)N[C@@H](Cc2ccc(OCC(=O)O)cc2)C(=O)N[C@@H](Cc2ccc(-c3ccccc3)cc2)C(=O)N[C@@H](Cc2ccc(OCC(=O)O)cc2)C(=O)N[C@@H](CCCN)C(=O)N[C@H](CC(C)C)C(=O)N[C@@H](CCN)C(=O)N[C@@H](CC2CCCCC2)C(=O)N[C@@H](C(C)(C)O)C(=O)N[C@@H](CO)C(=O)N1)C(=O)O [Compound 2318] ({CH2CO}-[4Pal][Phe(4-COOH)]D[Phe(3-Me)]Y(Carboxymethyl)[Bip]Y(Carboxymethyl)[Orn][dL][Dab][Cha][Val(3-OH)]SC[Dab][Pra]-OH; thioether N-14) | 678
4 | CC(C)C[C@H]1NC(=O)[C@H](CCCN)NC(=O)[C@H](CCC(=O)O)NC(=O)[C@H](Cc2ccc(-c3ccccc3)cc2)NC(=O)[C@H](C(C)C)NC(=O)[C@H](Cc2c[nH]c3ccccc23)NC(=O)[C@H](CC(=O)O)NC(=O)[C@H](Cc2ccc(OCC(=O)O)cc2)NC(=O)[C@H](CN)NC(=O)CSC[C@@H](C(=O)N[C@@H](C)C(N)=O)NC(=O)[C@H]([C@@H](C)O)NC(=O)[C@H](C(C)C)NC(=O)[C@H](Cc2ccc(F)c(F)c2)NC(=O)[C@H](CCN)NC1=O [Compound 1482] ({CH2CO}-[Dap]Y(Carboxymethyl)DWV[Bip]E[Orn][dL][Dab][Phe(3,4-F2)]VTCA-NH2; thioether N-14) | 104
5 | Cc1cccc(C[C@@H]2NC(=O)[C@H](CC(=O)O)NC(=O)[C@H](Cc3ccc(OCC(=O)O)cc3)NC(=O)[C@H](C(C)O)NC(=O)CSC[C@@H](C(=O)N[C@@H](CCN)C(N)=O)NC(=O)[C@H](C(C)O)NC(=O)[C@H](C(C)(C)O)NC(=O)[C@H](CC3CCCCC3)NC(=O)[C@H](CCN)NC(=O)[C@@H](CC(C)C)NC(=O)[C@H](CCCN)NC(=O)[C@H](CCCNC(N)=O)NC(=O)[C@H](Cc3ccc(-c4ccccc4)cc3)NC(=O)[C@H](C(C)C)NC2=O)c1 (stereo partly drawn) [Compound 2632] ({CH2CO}-[Thr(3ξ)]Y(Carboxymethyl)D[Phe(3-Me)]V[Bip][Cit][Orn][dL][Dab][Cha][Val(3-OH)][Thr(3ξ)]C[Dab]-NH2; thioether N-14) | 8.8
6 | CC(C)C[C@H]1NC(=O)[C@H](CCCN)NC(=O)[C@H](CCCNC(N)=O)NC(=O)[C@H](Cc2ccc(-c3ccccc3)cc2)NC(=O)[C@H](C(C)C)NC(=O)[C@H](Cc2c[nH]c3ccccc23)NC(=O)[C@H](CC(=O)O)NC(=O)[C@H](CC(C(=O)O)C(=O)O)NC(=O)[C@H](CN)NC(=O)CSC[C@@H](C(=O)N[C@@H](C)C(N)=O)NC(=O)[C@H]([C@@H](C)O)NC(=O)[C@H](C(C)C)NC(=O)[C@H](CC2CCCCC2)NC(=O)[C@H](CCN)NC1=O [Compound 2134] ({CH2CO}-[Dap][Gla]DWV[Bip][Cit][Orn][dL][Dab][Cha]VTCA-NH2; thioether N-14) | 365
7 | CC(C)C[C@@H]1NC(=O)[C@H](CCN)NC(=O)[C@@H](CC(C)C)NC(=O)[C@H](CCCN)NC(=O)[C@H](C(C)C)NC(=O)[C@H](Cc2ccc(-c3ccccc3)cc2)NC(=O)[C@H](C(C)C)NC(=O)[C@H](Cc2c[nH]c3ccccc23)NC(=O)[C@H](CC(=O)O)NC(=O)[C@H](Cc2ccc(O)cc2)NC(=O)[C@H](Cc2ccncc2)NC(=O)CSC[C@@H](C(=O)N[C@@H](C)C(N)=O)NC(=O)[C@H]([C@@H](C)O)NC(=O)[C@H](C(C)C)NC1=O [Compound 1047] ({CH2CO}-[4Pal]YDWV[Bip]V[Orn][dL][Dab]LVTCA-NH2; thioether N-14) | 6.7
8 | CC(C)C[C@H]1NC(=O)[C@H](CCCN)NC(=O)[C@H](CCCNC(N)=O)NC(=O)[C@H](Cc2ccc(-c3ccccc3)cc2)NC(=O)[C@H](C(C)C)NC(=O)[C@H](Cc2c[nH]c3ccccc23)NC(=O)[C@H](CC(=O)O)NC(=O)[C@H](Cc2ccc(O)cc2)NC(=O)[C@H](Cc2ccc(OCC(=O)O)cc2)NC(=O)CSC[C@@H](C(=O)N[C@@H](C)C(N)=O)NC(=O)[C@H]([C@@H](C)O)NC(=O)[C@H](C(C)C)NC(=O)[C@H](CC2CCCCC2)NC(=O)[C@H](CCN)NC1=O [Compound 1165] | 14.6
9 | CCCCC[C@@H]1NC(=O)[C@H](C(C)C)NC(=O)[C@@H](Cc2ccccc2)NC(=O)[C@H](CC(=O)O)NC(=O)[C@H](CCCNC(=N)N)NC(=O)[C@H](c2ccc(-c3ccccc3)cc2)NC(=O)[C@H](C(C)C)NC(=O)[C@H](Cc2c[nH]c3ccccc23)NC(=O)[C@H](CC(=O)O)NC(=O)[C@H](Cc2ccc(O)cc2)NC(=O)[C@H](Cc2ccccc2)NC(=O)CSC[C@@H](C(=O)NCC(N)=O)NC(=O)[C@H](CO)NC(=O)[C@H](C(C)C)NC1=O [Compound 1000] ({CH2CO}-FYDWV[Phg(4-Ph)]RD[dF]V[Ahp(2)]VSCG-NH2; thioether N-14) | 251
10 | CC(C)C[C@H]1NC(=O)[C@H](CCCN)NC(=O)[C@H](C(C)C)NC(=O)[C@H](Cc2ccc(-c3ccccc3)cc2)NC(=O)[C@H](C(C)C)NC(=O)[C@H](Cc2c[nH]c3ccccc23)NC(=O)[C@H](CC(=O)O)NC(=O)[C@H](Cc2ccc(OCC(=O)O)cc2)NC(=O)[C@H](C(C)O)NC(=O)CSC[C@@H](C(=O)N(C)[C@@H](CC(N)=O)C(N)=O)NC(=O)[C@H](CO)NC(=O)[C@H](C(C)C)NC(=O)[C@H](CC2CCCCC2)NC(=O)[C@H](CCN)NC1=O (stereo partly drawn) [Compound 2568] ({CH2CO}-[Thr(3ξ)]Y(Carboxymethyl)DWV[Bip]V[Orn][dL][Dab][Cha]VSC[NMeN]-NH2; thioether N-14) | 67.1
11 | Cc1cccc(C[C@@H]2NC(=O)[C@H](CC(=O)O)NC(=O)[C@H](Cc3ccc(OCC(=O)O)cc3)NC(=O)[C@H](C(C)O)NC(=O)CSC[C@@H](C(=O)N[C@H](CC(N)=O)C(N)=O)NC(=O)[C@H](CO)NC(=O)[C@H](C(C)(C)O)NC(=O)[C@H](CC3CCCCC3)NC(=O)[C@H](CCN)NC(=O)[C@@H](CC(C)C)NC(=O)[C@H](CCCN)NC(=O)[C@H](Cc3ccc(O)cc3)NC(=O)[C@H](Cc3ccc(-c4ccccc4)cc3)NC(=O)[C@H](Cc3ccc(C(N)=O)cc3)NC2=O)c1 (stereo partly drawn) [Compound 2658] ({CH2CO}-[Thr(3ξ)]Y(Carboxymethyl)D[Phe(3-Me)][Phe(4-CONH2)][Bip]Y[Orn][dL][Dab][Cha][Val(3-OH)]SC[dN]-NH2; thioether N-14) | 25.9
12 | CCC(C)[C@@H]1NC(=O)[C@H](Cc2ccc(-c3ccccc3)cc2)NC(=O)[C@H](C(C)C)NC(=O)[C@H](Cc2cc(OC)ccc2F)NC(=O)[C@H](CC(=O)O)NC(=O)[C@H](Cc2ccc(OCC(=O)O)cc2)NC(=O)[C@H](CN)NC(=O)CSC[C@@H](C(=O)N[C@@H](C)C(N)=O)NC(=O)[C@H]([C@@H](C)O)NC(=O)[C@H](C(C)C)NC(=O)[C@H](CC2CCCCC2)NC(=O)[C@H](CCN)NC(=O)[C@@H](CC(C)C)NC(=O)[C@H](CCCN)NC1=O (stereo partly drawn) [Compound 2248] | 13.8
13 | CC[C@H](C)[C@@H]1NC(=O)[C@H](Cc2ccc(-c3ccccc3)cc2)NC(=O)[C@H](C(C)C)NC(=O)[C@H](Cc2c[nH]c3ccccc23)NC(=O)[C@H](CC(=O)O)NC(=O)[C@H](Cc2ccc(O)cc2)NC(=O)[C@H](CC(N)=O)NC(=O)CSC[C@@H](C(=O)N[C@@H](C)C(N)=O)NC(=O)[C@H]([C@@H](C)O)NC(=O)[C@H](C(C)C)NC(=O)[C@H](CC2CCCCC2)NC(=O)[C@H](CCN)NC(=O)[C@@H](CC(C)C)NC(=O)[C@H](CCCN)NC1=O [Compound 1163] ({CH2CO}-NYDWV[Bip]I[Orn][dL][Dab][Cha]VTCA-NH2; thioether N-14) | 26.1
14 | CC(C)C[C@H]1NC(=O)[C@H](CCCN)NC(=O)[C@H](CCCCN)NC(=O)[C@H](Cc2ccc(-c3ccccc3)cc2)NC(=O)[C@H](C(C)C)NC(=O)[C@H](Cc2c[nH]c3ccccc23)NC(=O)[C@H](CC(=O)O)NC(=O)[C@H](Cc2ccncc2)NC(=O)[C@H](CN)NC(=O)CSC[C@@H](C(=O)N[C@@H](CCCN)C(N)=O)NC(=O)[C@H](CN)NC(=O)[C@H](C(C)C)NC(=O)[C@H](CC2CCCCC2)NC(=O)[C@H](CCN)NC1=O [Compound 2251] ({CH2CO}-[Dap][4Pal]DWV[Bip]K[Orn][dL][Dab][Cha]V[Dap]C[Orn]-NH2; thioether N-14) | 139
15 | CC(C)C[C@@H]1NC(=O)[C@H](CCN)NC(=O)[C@@H](CC(C)C)NC(=O)[C@H](CCCN)NC(=O)[C@H](CCCNC(=N)N)NC(=O)[C@H](Cc2ccc(-c3ccccc3)cc2)NC(=O)[C@H](C(C)C)NC(=O)[C@H](Cc2c[nH]c3ccccc23)NC(=O)[C@H](CC(=O)O)NC(=O)[C@H](Cc2ccc(OCC(=O)O)cc2)NC(=O)[C@H](Cc2ccncc2)NC(=O)CSC[C@@H](C(=O)N[C@@H](C)C(N)=O)NC(=O)[C@H]([C@@H](C)O)NC(=O)[C@H](C(C)C)NC1=O [Compound 1242] ({CH2CO}-[4Pal]Y(Carboxymethyl)DWV[Bip]R[Orn][dL][Dab]LVTCA-NH2; thioether N-14) | 28.9
